According to patent US9399626B2, “2-thiopyrimidinones” (Pfizer Inc., priority 2011, dated 2016):
Where a name gives a salt, the structure may show the parent alone.

Target: T1, MPO (purified from human polynuclear leukocytes) (Homo sapiens, UniProt P05164)
T1 construct: purified from human polynuclear leukocytes; purchased Calbiochem/EMD Biosciences; host or cells: human polynuclear leukocytes (natural source)
Experiment: MPO Amplex Red Activity Assay
Type: biochemical
Details: Table 1, 2 μM H2O2, pH 7.4
Experimental: MPO Amplex Red Activity Assay.
MPO peroxidase activity was measured by monitoring the formation of resorufin generated from the oxidation of Amplex Red (10-Acetyl-3,7-dihydroxyphenoxazine) (Invitrogen, Carlsbad, Calif.) by MPO (Gomes, Fernandes et al. 2005). Assay mixtures (100 μL total volume) contained 50 mM NaPi pH 7.4, 150 mM NaCl, 1 mM DTPA (diethylenetriaminepentaacetic acid), 2% DMSO, 2 μM H2O2, 30 μM Amplex Red and the reaction was initiated by the addition of […] (purified from human polynuclear leukocytes and purchased from Calbiochem/EMD Biosciences, Gibbstown, N.J.). All assays were performed in 96-well, half-area, black, nonbinding surface, polystyrene plates (Corning) and the production of resorufin (excitation 530 nm, emission 580 nm) was monitored every 20 sec on a Spectramax M2 Microplate Spectrophotometer (Molecular Devices, Palo Alto, Calif.) equipped with Softmax Pro software (Molecular Devices, Palo Alto, Calif.). Reactions to determine the background reaction rate consisted of all assay components and 4 μL of 500 unit/mL bovine catalase (Sigma) in 50 mM KPi pH 7.0. The background rate was subtracted from each reaction progress curve. All data was analyzed using non-linear regression analysis in Microsoft Excel and Kaleidagraph (Synergy Software).
To determine inhibitor potency (kinact/KI) against MPO, the first 600 sec of the reaction progress curves were fit to equation 1, where Vo is the initial rate in RFU/sec and t is time in seconds, to obtain the first order rate constant for enzyme inactivation (kobs) at each inhibitor concentration.
[formula] Equation 1 is a variation of the standard equation for slow binding inhibition where the steady state velocity (Vs) is set to zero. Each kobs value was corrected for auto-inactivation of the enzyme by subtracting the kobs value for the uninhibited reaction. The corrected kobs values were then plotted versus inhibitor concentration ([I]) and fit to equation 2
[formula] where kinact is the maximal rate of inactivation and KI is the inhibitor concentration that yields half the rate of maximal inactivation (Copeland 2005).
Table 1 and (1A) below provides the myeloperoxidase inhibitory activity for the Examples below in accordance with the above-described assay.

T1 sequence (P05164 279-745 limits assumed): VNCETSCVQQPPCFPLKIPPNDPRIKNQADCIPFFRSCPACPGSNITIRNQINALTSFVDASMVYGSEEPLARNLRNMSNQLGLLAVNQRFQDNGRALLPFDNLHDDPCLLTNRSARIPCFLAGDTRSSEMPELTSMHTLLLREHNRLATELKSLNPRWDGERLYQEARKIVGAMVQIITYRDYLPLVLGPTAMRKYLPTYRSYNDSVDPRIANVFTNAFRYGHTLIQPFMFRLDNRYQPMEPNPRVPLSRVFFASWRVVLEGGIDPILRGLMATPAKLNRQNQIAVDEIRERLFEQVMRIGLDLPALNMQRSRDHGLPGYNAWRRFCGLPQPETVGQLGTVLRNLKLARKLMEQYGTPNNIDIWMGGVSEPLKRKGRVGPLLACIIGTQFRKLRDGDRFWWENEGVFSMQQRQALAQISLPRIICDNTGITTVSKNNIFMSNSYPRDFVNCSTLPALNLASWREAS
T1 sequence (P05164 165-273 limits assumed): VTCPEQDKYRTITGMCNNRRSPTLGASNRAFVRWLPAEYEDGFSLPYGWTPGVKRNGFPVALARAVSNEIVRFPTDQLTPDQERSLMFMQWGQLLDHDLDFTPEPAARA

SMILES	MPO kinact/Ki
COCCn1c(-c2c(F)cccc2OC)cc(=O)[nH]c1=S [Example 60, 6-(2-fluoro-6-methoxyphenyl)-1-(2-methoxyethyl)-2-thioxo-2,3-dihydropyrimidin-4(1H)-one]	3470 1/s per M
COc1ccc(-c2cc(=O)[nH]c(=S)n2CCN)c(Cl)c1 [Example 61, 1-(2-aminoethyl)-6-(2-chloro-4-methoxyphenyl)-2-thioxo-2,3-dihydropyrimidin-4(1H)-one hydrochloride]	3530 1/s per M
COc1cc(Cl)ccc1-c1cc(=O)[nH]c(=S)n1CCN [Example 62, 1-(2-aminoethyl)-6-(4-chloro-2-methoxyphenyl)-2-thioxo-2,3-dihydropyrimidin-4(1H)-one hydrochloride]	6930 1/s per M
COc1ccc(Cl)cc1-c1cc(=O)[nH]c(=S)n1CCN [Example 63, 1-(2-aminoethyl)-6-(5-chloro-2-methoxyphenyl)-2-thioxo-2,3-dihydropyrimidin-4(1H)-one hydrochloride]	12200 1/s per M
COc1ccc(Cl)cc1-c1cc(=O)[nH]c(=S)n1CCO [Example 64, 6-(5-chloro-2-methoxyphenyl)-1-(2-hydroxyethyl)-2-thioxo-2,3-dihydropyrimidin-4(1H)-one]	22500 1/s per M
COc1ncc(Cl)cc1-c1cc(=O)[nH]c(=S)n1CCO [Example 65, 6-(5-chloro-2-methoxypyridin-3-yl)-1-(2-hydroxyethyl)-2-thioxo-2,3-dihydropyrimidin-4(1H)-one]	7940 1/s per M
COCCn1c(-c2cc3ccccc3n2C)cc(=O)[nH]c1=S [Example 66, 1-(2-methoxyethyl)-6-(1-methyl-1H-indol-2-yl)-2-thioxo-2,3-dihydropyrimidin-4(1H)-one]	1580 1/s per M
COCCn1c(-c2cn(C)c3ccccc23)cc(=O)[nH]c1=S [Example 67, 1-(2-methoxyethyl)-6-(1-methyl-1H-indol-3-yl)-2-thioxo-2,3-dihydropyrimidin-4(1H)-one]	7520 1/s per M
NC(=O)Cn1c(-c2csc3ccccc23)cc(=O)[nH]c1=S [Example 68, 2-[6-(1-benzothien-3-yl)-4-oxo-2-thioxo-3,4-dihydropyrimidin-1(2H)-yl]acetamide]	1160 1/s per M
NC(=O)Cn1c(-c2cc3ccccc3s2)cc(=O)[nH]c1=S [Example 69, 2-[6-(1-benzothien-2-yl)-4-oxo-2-thioxo-3,4-dihydropyrimidin-1(2H)-yl]acetamide]	4250 1/s per M
COCCn1c(-c2ccc(C#N)cc2OC)cc(=O)[nH]c1=S [Example 70, 3-methoxy-4-[3-(2-methoxyethyl)-6-oxo-2-thioxo-1,2,3,6-tetrahydro-pyrimidin-4-yl]benzonitrile]	1590 1/s per M
NCCCn1c(-c2cc3ccccc3s2)cc(=O)[nH]c1=S [Example 71, 1-(3-aminopropyl)-6-(1-benzothien-2-yl)-2-thioxo-2,3-dihydropyrimidin-4(1H)-one hydrochloride]	3570 1/s per M
NCCCn1c(-c2cccc3ncsc23)cc(=O)[nH]c1=S [Example 72, 1-(3-aminopropyl)-6-(1,3-benzothiazol-7-yl)-2-thioxo-2,3-dihydropyrimidin-4(1H)-one trifluoroacetate]	3580 1/s per M
COCCn1c(-c2cccc3ccsc23)cc(=O)[nH]c1=S [Example 73, 6-(1-benzothien-7-yl)-1-(2-methoxyethyl)-2-thioxo-2,3-dihydropyrimidin-4(1H)-one]	9870 1/s per M
COCCn1c(-c2cccc3sccc23)cc(=O)[nH]c1=S [Example 74, 6-(1-benzothien-4-yl)-1-(2-methoxyethyl)-2-thioxo-2,3-dihydropyrimidin-4(1H)-one]	14400 1/s per M
COCCn1c(-c2nc3ccccc3s2)cc(=O)[nH]c1=S [Example 75, 6-(1,3-benzothiazol-2-yl)-1-(2-methoxyethyl)-2-thioxo-2,3-dihydropyrimidin-4(1H)-one]	2040 1/s per M

SMILES	MPO kinact/Ki
NCCCn1c(-c2ccc3c(c2)OCCO3)cc(=O)[nH]c1=S [Example 76, 1-(3-aminopropyl)-6-(2,3-dihydro-1,4-benzodioxin-6-yl)-2-thioxo-2,3-dihydropyrimidin-4(1H)-one hydrochloride]	4190 1/s per M
COc1ccccc1-c1cc(=O)[nH]c(=S)n1CCN=C(N)N [Example 77, 2-{2-[6-(2-methoxyphenyl)-4-oxo-2-thioxo-3,4-dihydropyrimidin-1(2H)-yl]ethyl}guanidine hydrochloride]	6660 1/s per M
COCCn1c(-c2cccc3ncsc23)cc(=O)[nH]c1=S [Example 78, 6-(1,3-benzothiazol-7-yl)-1-(2-methoxyethyl)-2-thioxo-2,3-dihydropyrimidin-4(1H)-one]	9730 1/s per M
Cl.NCCCOc1ccccc1-c1cc(=O)[nH]c(=S)n1CCN [Example 79, 1-(2-aminoethyl)-6-[2-(3-aminopropoxy)phenyl]-2-thioxo-2,3-dihydropyrimidin-4(1H)-one hydrochloride]	1580 1/s per M
COCCn1c(-c2cccc3c2OCCO3)cc(=O)[nH]c1=S [Example 80, 6-(2,3-dihydro-1,4-benzodioxin-5-yl)-1-(2-methoxyethyl)-2-thioxo-2,3-dihydropyrimidin-4(1H)-one]	4130 1/s per M
COc1cc(OC)c(-c2cc(=O)[nH]c(=S)n2CCN)cc1C [Example 81, 1-(2-aminoethyl)-6-(2,4-dimethoxy-5-methylphenyl)-2-thioxo-2,3-dihydropyrimidin-4(1H)-one hydrochloride]	24300 1/s per M
COc1ccc(-c2cc(=O)[nH]c(=S)n2CCCN)cc1OC [Example 82, 1-(3-aminopropyl)-6-(3,4-dimethoxyphenyl)-2-thioxo-2,3-dihydropyrimidin-4(1H)-one hydrochloride]	3390 1/s per M
COc1ccc(-c2cc(=O)[nH]c(=S)n2CC(N)=O)cc1OC [Example 83, 2-[6-(3,4-dimethoxyphenyl)-4-oxo-2-thioxo-3,4-dihydropyrimidin-1(2H)-yl]acetamide]	3510 1/s per M
COc1cc(-c2cc(=O)[nH]c(=S)n2CCN)c(OC)cc1C [Example 84, 1-(2-aminoethyl)-6-(2,5-dimethoxy-4-methylphenyl)-2-thioxo-2,3-dihydropyrimidin-4(1H)-one hydrochloride]	6630 1/s per M
COc1cc(OC)cc(-c2cc(=O)[nH]c(=S)n2CCCN)c1 [Example 85, 1-(3-aminopropyl)-6-(3,5-dimethoxyphenyl)-2-thioxo-2,3-dihydropyrimidin-4(1H)-one hydrochloride]	10700 1/s per M
COc1cc(OC)cc(-c2cc(=O)[nH]c(=S)n2CC(N)=O)c1 [Example 86, 2-[6-(3,5-dimethoxyphenyl)-4-oxo-2-thioxo-3,4-dihydropyrimidin-1(2H)-yl]acetamide]	3960 1/s per M
COc1ccc(OC)c(-c2cc(=O)[nH]c(=S)n2CCCN)c1 [Example 87, 1-(3-aminopropyl)-6-(2,5-dimethoxyphenyl)-2-thioxo-2,3-dihydropyrimidin-4(1H)-one hydrochloride]	15400 1/s per M
NCCCn1c(-c2ccccc2OCCO)cc(=O)[nH]c1=S [Example 88, 1-(3-aminopropyl)-6-[2-(2-hydroxyethoxy)phenyl]-2-thioxo-2,3-dihydropyrimidin-4(1H)-one hydrochloride]	898 1/s per M
COc1ccc(-c2cc(=O)[nH]c(=S)n2CC(=O)O)c(OC)c1 [Example 89, [6-(2,4-dimethoxyphenyl)-4-oxo-2-thioxo-3,4-dihydropyrimidin-1(2H)-yl]acetic acid]	276 1/s per M
COc1cc(OC)c(-c2cc(=O)[nH]c(=S)n2CCN)cc1F [Example 90, 1-(2-aminoethyl)-6-(5-fluoro-2,4-dimethoxyphenyl)-2-thioxo-2,3-dihydropyrimidin-4(1H)-one hydrochloride]	11600 1/s per M
COc1ccc(-c2cc(=O)[nH]c(=S)n2CCCN)c(Cl)c1 [Example 91, 1-(3-aminopropyl)-6-(2-chloro-4-methoxyphenyl)-2-thioxo-2,3-dihydropyrimidin-4(1H)-one hydrochloride]	9360 1/s per M
